No end group written: not given here.
Columns and labels:
[1] = test system: platelets
[2] = test system: FeCl3-induced carotid artery thrombus; test: Targeted thrombolysis in vivo (delay of vessel occlusion, FeCl3 carotid thrombosis); design: species or system mouse; settings: ~400 IU SK where loaded, injected ~5 min after thrombus induction
Text: For targeted thrombolytic capacity assessment, Rhodamine 6G solution was first injected into the right jugular vein of the mouse to render direct fluorescent labeling of circulating platelets and the FeCl3-induced thrombus was created in the carotid as before, such that the formation of the thrombus and extent of vessel occlusion can be observed directly by monitoring the fluorescent platelets in the artery with intra-vital microscopy. For this, the carotid artery was thrombosed as before and […] of Rhodamine 6G solution was injected into the right jugular vein that results in direct fluorescent labeling of circulating platelets. This allows for imaging platelet-rich thrombus formation (and lysis) in real time. […] The effect of these various treatments on delaying the thrombus growth over time was imaged by intravital microscopy, with images recorded for 10 s every minute for the first 10 min and then 10 s every other minute until the end of the experiment. […] The end points of the experiment were: 1) when blood flow had ceased for >30 s due to vessel occlusion, or 2) if occlusion was not observed in 30 min after SK (free or vesicle-encapsulated) administration. […]

[3] = test system: platelet-rich green fluorescent fibrin clot; test: In vitro thrombolytic capacity in PPFC on platelet-rich fluorescent fibrin clots; type: cell-based; settings: flow over clot
Method: Glass microscope slides were incubated with collagen suspension in a circular region for 30 min (similar to slide preparation for PPFC-based binding studies) and then gently washed with 1×PBS. PRP with AlexaFluor 488-conjugated fibrinogen (6% v/v of 1.5 mg/mL, green fluorescent) was briefly mixed with α-thrombin and 0.5 M CaCl2), to final concentrations of 5 nM and […] respectively, to initiate clot formation and the mixture was pipetted (100 μl volume) onto the collagen-coated surface region. The clot was allowed to incubate for 1 h and then gently washed with 1×PBS to remove loosely bound components. The slide thus formed with platelet-rich green fluorescent fibrin clot on its surface, was sealed into the parallel plate flow chamber (PPFC) system, to be imaged under the inverted fluorescence microscope. The objective was focused on an area at the edge of the clot such that the initial field of view enabled observation of the green fluorescence of the fibrin clot throughout the whole area of view, and the clot lysis could then be observed as the loss of this fluorescence. […] In this experimental set-up, sPLA2-triggered degradation of clot-bound PMIN vesicles and resultant SK release was expected to convert the plasminogen to plasmin and thereby lyse the fibrin of the clot.

Row | Substance | activation of platelets by aggregometry [1] | delay in vessel occlusion [2] | time to clot lysis (loss of green fluorescence) [3] [min]
1 | TRYLRIHPQSWVHQI-NH2 [VBP] | inability of both VBP and CBP to activate platelets | – | –
2 | streptokinase [free SK] | – | keeps the artery significantly open due to persistent thrombolysis | ≤ 15

Reference: US12161698B2, “Synthetic platelets” (CASE WESTERN RESERVE UNIVERSITY, priority 2011, dated 2024)
